Data published in the NIST ThermoML archive (doi:10.1016/j.jct.2011.07.011).
Several values for one entry are separate records, joined by “and”; a condition that tells them apart may be missing. Equal values may be shown once. ± gives the expanded uncertainty stated by the source.

Settings: Crystal; Heating/Cooling curves

With `[Ne]` [neon] the Triple point temperature was 24.54 ± 0.077 K and 24.69 ± 0.077 K.
